# Patent US20230197192A1, “SELECTING NEOANTIGENS FOR PERSONALIZED CANCER VACCINE” (AMAZON TECHNOLOGIES, INC., priority 2020, published 2023)
# Where no end group is shown, it is not given here.
# Assay: Visible dissolution of peptides in DMSO / 0.9% NaCl for pool formulation
# Type: physicochemical
# Details: not given
# Protocol: Groups of peptides are selected and pooled. Up to four (4) pools with not more than (NMT) five (5) peptides in each pool were prepared. Each peptide was dissolved in 5.538% (v/v) DMSO followed by 0.9% NaCl solution, at a concentration of each peptide at 0.4158 mg/mL. Peptides which were visibly dissolved were accepted for that group's pool. Upon successful pooling of all peptides within a group, the pool was filtered through a 0.2 μm Nylon filter. Peptides were shipped in sterile tubes and labeled with Pool name, lot #, components, manufacturing data, quantity/concentration and storage conditions.
row,Sequence,Solubility
1,TYPEADSFPSWAAAHRKGSS [DDDDD.20],Clear

# Same assay, conditions: Peptide Synthesis Engineering Run Batch for Sample GGGGG; visual appearance of the peptide solution (Clear / Semi Cloudy / Cloudy)
row,Sequence,Visual solubility (appearance of the peptide solution)
1,STAPAEATLPKPGEAEAP [GGGGG.16],Clear
2,TSAPGSSRLAA [GGGGG.47],Clear
3,TVDMLQCLRFPGLALPHTRAPSPLG [GGGGG.35],Clear
4,VALSVRPI [GGGGG.37],Clear
5,VDLKFPASVPTGAQDLISKL [GGGGG.25],Clear
6,VLGTSAPGSSRLAAVDLGG [GGGGG.2],Clear
7,VSPDIFMQSHL [GGGGG.40],Clear
8,YSGIQESSSASPLSIKKCPI [GGGGG.29],Clear

# Same assay, conditions: Peptide synthesis engineering run batch for sample DDDDD_2020; appearance of the solution
row,Sequence,Solubility
1,TWHRGDAL [DDDDD.34],Clear
2,WLPELPSLPSNGDPPAICE [DDDDD.15],Clear

# Same assay, conditions: Peptide synthesis engineering run batch for sample FFFFF; appearance of the solution
row,Sequence,Solubility
1,TGQDMLAL [FFFFF.36],Clear
2,TPSAPEGYDLKIGLFLAPRRGSLPD [FFFFF.17],Clear
3,VGRAWDAITDHLVGLCISKSP [FFFFF.19],Clear
4,YGRTVVPFLVPGTSQLGQ [FFFFF.9],Clear
5,YIHTSVSQDFSQSVPGTTSSPL [FFFFF.10],Clear
6,YKTDLHSL [FFFFF.37],Clear
